Measurements: ChEMBL document CHEMBL1201862, “PubChem BioAssay data set” (2004)
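These data come from cells grown in 96-well plates and exposed to compound for 48 hours at five concentrations. GI50 = concentration required for 50% inhibition of growth.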 Calls of active or inactive are those of the source. Cut-off read from the data, not from the text of the source: active = GI50 up to about 1.1 µM and inactive = higher.

Legend:
Assay in all cases: NCI anticancer screen, dose series, 48 h
M19-MEL = system: M19-MEL
XF498 = system: XF498
ACHN = system: ACHN
SF-268 = system: SF-268
SN12C = system: SN12C
UACC-257 = system: UACC-257
DLD-1 = system: DLD-1
KM-20L2 = system: KM-20L2
LOX IMVI = system: LOX IMVI
U-251 = system: U-251
UACC-62 = system: UACC-62
KM12 = system: KM12
A549 = system: A549
EKVX = system: EKVX
UO-31 = system: UO-31
CCRF-CEM = system: CCRF-CEM
SK-MEL-2 = system: SK-MEL-2
NCI-H522 = system: NCI-H522
HOP-62 = system: HOP-62
OVCAR-3 = system: OVCAR-3
LXFL 529 = system: LXFL 529
OVCAR-5 = system: OVCAR-5
HCC 2998 = system: HCC 2998
SR = system: SR
NCI-H23 = system: NCI-H23
HL-60 = system: HL-60
Malme-3M = system: Malme-3M
SNB-75 = system: SNB-75
K562 = system: K562
SK-OV-3 = system: SK-OV-3
SNB-19 = system: SNB-19
HOP-92 = system: HOP-92
MOLT-4 = system: MOLT-4
HCT-116 = system: HCT-116
NCI-H460 = system: NCI-H460
RXF 631 = system: RXF 631
OVCAR-4 = system: OVCAR-4
CAKI-1 = system: CAKI-1
SF-539 = system: SF-539
SF-295 = system: SF-295
HCT-15 = system: HCT-15
SK-MEL-5 = system: SK-MEL-5
RXF 393 = system: RXF 393
HOP-18 = system: HOP-18
SW-620 = system: SW-620
COLO 205 = system: COLO 205
SNB-78 = system: SNB-78
TK-10 = system: TK-10
SK-MEL-28 = system: SK-MEL-28
HT-29 = system: HT-29
IGROV-1 = system: IGROV-1
A498 = system: A498
RPMI-8226 = system: RPMI-8226
OVCAR-8 = system: OVCAR-8
M14 = system: M14
786-0 = system: 786-0

CS/C(c1ccccc1)=[N+](/C)[O-]
GI50 (M19-MEL): > 100 µM (inactive)
GI50 (XF498): > 100 µM (inactive)
GI50 (ACHN): > 100 µM (inactive)
GI50 (SF-268): > 100 µM (inactive)
GI50 (SN12C): > 100 µM (inactive)
GI50 (UACC-257): > 100 µM (inactive)
GI50 (DLD-1): > 61.5 µM (inactive)
GI50 (KM-20L2): > 100 µM (inactive)
GI50 (LOX IMVI): > 43.3 µM (inactive)
GI50 (U-251): > 100 µM (inactive)
GI50 (UACC-62): > 100 µM (inactive)
GI50 (KM12): > 100 µM (inactive)
GI50 (A549): > 100 µM (inactive)
GI50 (EKVX): > 100 µM (inactive)
GI50 (UO-31): > 100 µM (inactive)
GI50 (CCRF-CEM): > 51.2 µM (inactive)
GI50 (SK-MEL-2): > 100 µM (inactive)
GI50 (NCI-H522): > 100 µM (inactive)
GI50 (HOP-62): > 100 µM (inactive)
GI50 (OVCAR-3): > 100 µM (inactive)
GI50 (LXFL 529): > 100 µM (inactive)
GI50 (OVCAR-5): > 100 µM (inactive)
GI50 (HCC 2998): > 100 µM (inactive)
GI50 (SR): 24.2 µM (inactive)
GI50 (NCI-H23): > 100 µM (inactive)
GI50 (HL-60): > 100 µM (inactive)
GI50 (Malme-3M): > 100 µM (inactive)
GI50 (SNB-75): > 64.6 µM (inactive)
GI50 (K562): > 67.9 µM (inactive)
GI50 (SK-OV-3): > 100 µM (inactive)
GI50 (SNB-19): > 100 µM (inactive)
GI50 (HOP-92): > 100 µM (inactive)
GI50 (MOLT-4): > 100 µM (inactive)
GI50 (HCT-116): > 80 µM (inactive)
GI50 (NCI-H460): > 52.2 µM (inactive)
GI50 (RXF 631): > 100 µM (inactive)
GI50 (OVCAR-4): > 100 µM (inactive)
GI50 (CAKI-1): > 100 µM (inactive)
GI50 (SF-539): > 100 µM (inactive)
GI50 (SF-295): > 100 µM (inactive)
GI50 (HCT-15): 18.1 µM
GI50 (SK-MEL-5): > 100 µM (inactive)
GI50 (RXF 393): > 100 µM (inactive)
GI50 (HOP-18): > 100 µM (inactive)
GI50 (SW-620): > 100 µM (inactive)
GI50 (COLO 205): > 43.3 µM (inactive)
GI50 (SNB-78): > 100 µM (inactive)
GI50 (TK-10): > 100 µM (inactive)
GI50 (SK-MEL-28): > 100 µM (inactive)
GI50 (HT-29): > 75.9 µM (inactive)
GI50 (IGROV-1): > 100 µM (inactive)
GI50 (A498): > 100 µM (inactive)
GI50 (RPMI-8226): > 56.2 µM (inactive)
GI50 (OVCAR-8): > 100 µM (inactive)
GI50 (M14): > 100 µM (inactive)
GI50 (786-0): > 100 µM (inactive)
